Data on 3 compounds can be found in patent publication US20060226082A1, “Methods for substrate and modulator screening using enzyme-reactor chromatography/tandem mass spectrometry” (McMaster University, priority 2005, published 2006).

Assay [1] deals with T1, adenosine deaminase (ADA) (Homo sapiens, UniProt P00813).
T1 sequence (P00813 1-363): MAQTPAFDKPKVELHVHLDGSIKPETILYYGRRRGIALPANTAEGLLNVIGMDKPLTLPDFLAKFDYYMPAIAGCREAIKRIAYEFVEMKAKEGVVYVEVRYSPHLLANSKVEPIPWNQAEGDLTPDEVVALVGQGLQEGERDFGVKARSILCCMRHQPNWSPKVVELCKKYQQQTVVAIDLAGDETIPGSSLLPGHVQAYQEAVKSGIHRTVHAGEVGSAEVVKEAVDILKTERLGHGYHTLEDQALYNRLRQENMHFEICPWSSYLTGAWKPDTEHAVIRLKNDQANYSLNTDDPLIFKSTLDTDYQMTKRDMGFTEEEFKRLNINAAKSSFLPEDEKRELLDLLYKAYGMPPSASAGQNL
The conditions noted are these: literature value; read-out: published KI value; cited from earlier work.

In assay [2] the target is T2, adenosine deaminase (ADA, Type V, EC 3.5.4.4) entrapped in monolithic silica column (Bos taurus, UniProt P56658).
T2 construct: Adenosine deaminase (ADA, Type V, from bovine intestine, EC 3.5.4.4); purchased Sigma-Aldrich (Oakville, Ontario, Canada) Type V (catalogue number not given); host or cells: bovine intestine (tissue-derived)
T2 sequence (P56658 1-363): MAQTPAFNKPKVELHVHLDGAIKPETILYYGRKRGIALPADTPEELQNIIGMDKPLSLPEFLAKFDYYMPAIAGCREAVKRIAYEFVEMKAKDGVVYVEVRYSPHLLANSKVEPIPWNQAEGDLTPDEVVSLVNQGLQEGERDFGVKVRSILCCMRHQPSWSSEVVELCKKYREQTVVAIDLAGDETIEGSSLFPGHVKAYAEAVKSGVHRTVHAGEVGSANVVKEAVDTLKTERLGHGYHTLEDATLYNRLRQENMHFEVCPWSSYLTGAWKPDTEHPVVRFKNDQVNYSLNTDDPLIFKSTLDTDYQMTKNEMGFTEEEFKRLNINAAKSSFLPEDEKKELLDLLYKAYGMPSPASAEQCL
Put plainly: ADA enzyme reactor/MS quantitative determination of IC50, KI and Km. It is filed as biochemical, bovine. The following applies: for IC50: IC50 [EHNA]; for effect on ADA activity (substrate and product signals, P/S ratio): test compounds increased stepwise from 0 to 1000 nM, adenosine constant at 62.5 μM, 2 mM ammonium acetate. The text has this:
In an embodiment of the invention, if the P/S ratio is altered in favour of the substrate, then at least one of the one or more test compounds is an inhibitor of the protein. By altering the ratio of the flow between substrate and test compound channels, one can alter the compound concentrations and, thereby, obtain full inhibition curves. IC50 values are obtained by altering the flow in the substrate and substrate+inhibitor(s) channel in a stepwise fashion, thus allowing for variation of inhibitor concentration with constant substrate concentration. […] KI values are determined by extrapolation of IC50 values obtained at different substrate concentrations to the point of zero substrate concentration as per the equation: [formula] […] Note that for the enzyme reactor column, product concentration, rather than reaction rate, is monitored. Thus, the equation is valid only under conditions where the initial rate is proportional to product concentration. In the present system, it is assumed that this holds for conversion rates of 30% or less.
To assess the enzyme-reactor chromatography/tandem MS method for inhibitor screening, monolithic silica columns containing entrapped adenosine deaminase (ADA, EC 3.5.4.4) and Factor Xa were formed according to previously described methods.^25 ADA was used as the model enzyme owing to the relevance of this protein in immune disorders,^19 and because there are currently no high-throughput screening methods for this enzyme. An Eksigent nanoLC system was used to continuously infuse liquid through the column (10 μL/min total flowrate), with one channel containing adenosine (Pump A) and another containing adenosine plus 1 μM test compound(s) (Pump B), with all species present in 2 mM ammonium acetate buffer (FIG. 1, bottom).
(§1) Columns were fabricated in a fashion similar to that described previously.^25 ADA was exhaustively dialyzed against a solution containing 5 mM Bis-Tris.HCl, pH 6.5, with 10% (v/v) glycerol to remove all traces of phosphate buffer and adjust the pH. 40 mL of the resultant 40 mM ADA solution was then mixed with 20 mL of a solution containing 0.5 mM Bis-Tris.HCl, pH 6.5 with 50% (v/v) glycerol. DGS based sols were prepared by sonicating DGS with water (1 g+1 mL) at 0° C. for 15 min to hydrolyze the monomer, followed by filtration through a 0.2 mm filter. 100 mL of the resulting sol was rapidly mixed with the 60 mL ADA solution prepared above, followed by the rapid addition of 40 mL of 40% (w/v) poly(ethylene glycol) in water. The sol solution was then injected into an 80 cm length of 250 mm i.d., 360 mm o.d., polyimide coated fused silica tubing that was previously cleaned using 1 M NaOH. The liquid sol must be completely mixed, injected and stationary within the capillary by the time phase separation occurs, ˜2 minutes after mixing. After gelation (˜3 min), capillaries were looped such that both ends could be submerged in 50 mM Bis-Tris.HCl pH 6.5 and secured for storage. Columns were aged for a minimum of 5 days to achieve a relatively stable internal structure. After aging, 10 cm column segments were cut from poured columns, as required.
A 2 channel, Eksigent nanoLC pump was used for mobile phase delivery to a MDS Sciex Q-Trap Mass Spectrometer. Note that the Eksigent pump uses direct pneumatic pumping of mobile phase at μL/min rates, with no flow splitting. An Eksigent AS-1 48 vial autosampler was fitted with a 250 μL withdrawal syringe and a 150 μL loop of 250 μm i.d. fused silica tubing. Thus, only small volumes of inhibitor solutions (˜400 μL) are required for screening, although larger volumes can be loaded directly into the Eksigent pump reservoir (1-5 mL depending on configuration) for determination of IC50 values. […] Mobile phases were run directly into the MS system, without the introduction of an organic “make-up flow”. Mass spectrometer control and data acquisition was done using Analyst v.1.4 software.

Assay [3] deals with T2, adenosine deaminase (ADA, Type V, EC 3.5.4.4) entrapped in monolithic silica column. Put plainly: ADA enzyme reactor/MS mixture screening (primary and secondary screen). The class given is biochemical, bovine. The conditions noted are these: each compound individually, 500 nM and 10 μM, 200 μM adenosine. As to the method: as §1, with “required. […]” for “required.”

“Also recorded” adds a separate entry of the source.

Turning to `CCCCCCC(C(C)O)n1cnc2c(N)ncnc21` (stereo not drawn) [EHNA, erythro-9-(2-hydroxy-3-nonyl)adenine], the Ki (usually the dissociation constant of the complex between target and ligand, obtained from inhibition or displacement) in assay [1] is 6.5 nM; in assay [2], 15.7 ± 3.5 nM. Also, the IC50 (as a rule, the concentration at which inhibition is half-maximal) was found to be 29.4 nM in assay [2] (EHNA alone (closed circles, FIG. 8A)) and 29.7 nM in assay [2] (EHNA in a mixture (open circles, FIG. 8A)). Moreover, in assay [2], the “effect on ADA activity (substrate and product signals, P/S ratio)” value is “concentration-dependent decrease in product and increase in substrate signals; also recorded: concentration-dependent decrease in ADA activity”. Besides, the “ADA inhibition in secondary screen (individual compounds of active mixture)” value in assay [3] was “active, inhibitory compound; also recorded: inhibitor of ADA”.

In the case of `Nc1ncnc2c1ncn2[C@@H]1O[C@H](CO)[C@@H](O)[C@H]1O` [adenosine], the Vmax in assay [2] (Michaelis-Menten analysis of inosine production rate (FIG. 6b)) turned out to be 734 pmole/min/column.

On to `Nc1nc2ncc(CNc3ccc(C(=O)N[C@@H](CCC(=O)O)C(=O)O)cc3)nc2c(=O)[nH]1` [folic acid], for which, in assay [2], the “effect on ADA activity (substrate and product signals, P/S ratio)” value is “no significant effect”.
